Results taken from patent US8192962B2, “Processes for detecting toxic substances” (Daikin Industries, Ltd., priority 2001, dated 2012).

System: Transport facilitation protein genes
Assay: DNA chip mRNA expression in yeast, transport facilitation protein genes (Table 5)
Assay type: cell-based, Saccharomyces cerevisiae S288C
Procedure: Yeast (Saccharomyces cerevisiae S288C (α SUC2mal mel gap2 CUP1)) were incubated at 25° C. on YPD medium (yeast extract 1%, polypepton 2%, glucose 2%). One of toxic chemical substances was added to the cells at logarithmic growth phase, and the cells were further incubated for two hours. Cells were cultured without any chemical substance in the same condition, and were used as control. Concentrations of the chemical substances were defined to inhibit the growth of the yeast but not lead to death.
After completion of the incubation, the culture was centrifuged to collect the cells. To the cells, sodium acetate buffer (50 mM sodium acetate, 10 mM EDTA, 1% SDS) was added, and the mixture was shaken at 65° C. for five minutes, followed by returning to room temperature, and obtaining the supernatant, of which the procedures were repeated two times. To the supernatant, ½ amount of a solution of phenol/chloroform was added, and the mixture was centrifuged to give a supernatant, which was added with an equal amount of chloroform, and the mixture was centrifuged to give a supernatant. To the supernatant, an equal amount of isopropanol containing 0.3 M sodium acetate was added, and the mixture was allowed to stand at room temperature for 30 minutes, after which the mixture was centrifuged to give a sediment of the whole RNAs. Seventy % ethanol was added to the sediment, and the mixture was again centrifuged to give a sediment, which was then dried and dissolved in water. mRNA was isolated from the whole RNAs as followings. In view of the fact that a poly A chain is attached to the 3′ terminus of mRNA, a polynucleotide having a poly T structure which was immobilized on the surface of latex beads was used to trap the mRNA, and then the mRNA was washed and eluted with spine column (Oligotex-dT30<Super>mRNA Purification Kit, Takara). Reverse transcription of the mRNA was conducted with a reverse transcriptase (Super Script II Reverse Transcriptase; catalogue No. 18064-014, GibcoBRL) using fluorescence-labeled nucleotides to give cDNAs that were introduced with Cy3-dUTP or Cy5-dUTP during the reverse transcription.
The labeled cDNAs were dissolved in TE buffer (10mM Tris-HCl/1 mM EDTA, pH8.0), and the solution was dropped on the DNA chip containing the whole genes of yeast (DNA Chip Research Inc. Japan) so that the cDNAs were hybridized on the DNA chip at 65° C. for over 12 hours. The fluoresces intensity of the DNA chip was read with a scanner, and the ratio relative to the fluorescence intensity resulting from the absence of chemical substance was estimated as the following, which is shown in Tables 1 to 9: […]

C=CC=O [(14), acrolein]
The level of expressed mRNA in the presence of chemical substance/The level of expressed mRNA in the absence of chemical substance (yeast gene YBL030C): 0.8
The level of expressed mRNA in the presence of chemical substance/The level of expressed mRNA in the absence of chemical substance (yeast gene YBL099W): 0.6
The level of expressed mRNA in the presence of chemical substance/The level of expressed mRNA in the absence of chemical substance (yeast gene YBR052C): 1.5
The level of expressed mRNA in the presence of chemical substance/The level of expressed mRNA in the absence of chemical substance (yeast gene YBR068C): 1.8
The level of expressed mRNA in the presence of chemical substance/The level of expressed mRNA in the absence of chemical substance (yeast gene YBR127C): 0.6
The level of expressed mRNA in the presence of chemical substance/The level of expressed mRNA in the absence of chemical substance (yeast gene YBR132C): 1.1
The level of expressed mRNA in the presence of chemical substance/The level of expressed mRNA in the absence of chemical substance (yeast gene YBR207W): 0.9
The level of expressed mRNA in the presence of chemical substance/The level of expressed mRNA in the absence of chemical substance (yeast gene YBR293W): 1.4
The level of expressed mRNA in the presence of chemical substance/The level of expressed mRNA in the absence of chemical substance (yeast gene YBR294W): 1.3
The level of expressed mRNA in the presence of chemical substance/The level of expressed mRNA in the absence of chemical substance (yeast gene YBR295W): 1.1
The level of expressed mRNA in the presence of chemical substance/The level of expressed mRNA in the absence of chemical substance (yeast gene YBR298C): 0.9
The level of expressed mRNA in the presence of chemical substance/The level of expressed mRNA in the absence of chemical substance (yeast gene YCL025C): 0.7
The level of expressed mRNA in the presence of chemical substance/The level of expressed mRNA in the absence of chemical substance (yeast gene YCL038C): 1.3
The level of expressed mRNA in the presence of chemical substance/The level of expressed mRNA in the absence of chemical substance (yeast gene YCR024C-A): 0.8
The level of expressed mRNA in the presence of chemical substance/The level of expressed mRNA in the absence of chemical substance (yeast gene YCR037C): 0.8
The level of expressed mRNA in the presence of chemical substance/The level of expressed mRNA in the absence of chemical substance (yeast gene YCR098C): 1.1
The level of expressed mRNA in the presence of chemical substance/The level of expressed mRNA in the absence of chemical substance (yeast gene YDL128W): 0.7
The level of expressed mRNA in the presence of chemical substance/The level of expressed mRNA in the absence of chemical substance (yeast gene YDL198C): 1.7
The level of expressed mRNA in the presence of chemical substance/The level of expressed mRNA in the absence of chemical substance (yeast gene YDL210W): 1.1
The level of expressed mRNA in the presence of chemical substance/The level of expressed mRNA in the absence of chemical substance (yeast gene YDL245C): 1.2
The level of expressed mRNA in the presence of chemical substance/The level of expressed mRNA in the absence of chemical substance (yeast gene YDR038C): 0.8
The level of expressed mRNA in the presence of chemical substance/The level of expressed mRNA in the absence of chemical substance (yeast gene YDR039C): 0.9
The level of expressed mRNA in the presence of chemical substance/The level of expressed mRNA in the absence of chemical substance (yeast gene YDR086C): 1.5
The level of expressed mRNA in the presence of chemical substance/The level of expressed mRNA in the absence of chemical substance (yeast gene YDR270W): 1.0
The level of expressed mRNA in the presence of chemical substance/The level of expressed mRNA in the absence of chemical substance (yeast gene YDR298C): 1.5
The level of expressed mRNA in the presence of chemical substance/The level of expressed mRNA in the absence of chemical substance (yeast gene YDR342C): 0.9
The level of expressed mRNA in the presence of chemical substance/The level of expressed mRNA in the absence of chemical substance (yeast gene YDR343C): 0.8
The level of expressed mRNA in the presence of chemical substance/The level of expressed mRNA in the absence of chemical substance (yeast gene YDR345C): 0.8
The level of expressed mRNA in the presence of chemical substance/The level of expressed mRNA in the absence of chemical substance (yeast gene YDR387C): 0.9
The level of expressed mRNA in the presence of chemical substance/The level of expressed mRNA in the absence of chemical substance (yeast gene YDR497C): 0.6
The level of expressed mRNA in the presence of chemical substance/The level of expressed mRNA in the absence of chemical substance (yeast gene YEL027W): 1.4
The level of expressed mRNA in the presence of chemical substance/The level of expressed mRNA in the absence of chemical substance (yeast gene YEL063C): 0.8
The level of expressed mRNA in the presence of chemical substance/The level of expressed mRNA in the absence of chemical substance (yeast gene YEL065W): 0.4
The level of expressed mRNA in the presence of chemical substance/The level of expressed mRNA in the absence of chemical substance (yeast gene YER053C): 1.3
The level of expressed mRNA in the presence of chemical substance/The level of expressed mRNA in the absence of chemical substance (yeast gene YFL011W): 0.8
The level of expressed mRNA in the presence of chemical substance/The level of expressed mRNA in the absence of chemical substance (yeast gene YFL041W): 1.0
The level of expressed mRNA in the presence of chemical substance/The level of expressed mRNA in the absence of chemical substance (yeast gene YFL050C): 1.0
The level of expressed mRNA in the presence of chemical substance/The level of expressed mRNA in the absence of chemical substance (yeast gene YFL054C): 0.9
The level of expressed mRNA in the presence of chemical substance/The level of expressed mRNA in the absence of chemical substance (yeast gene YGL006W): 0.9
The level of expressed mRNA in the presence of chemical substance/The level of expressed mRNA in the absence of chemical substance (yeast gene YGL008C): 1.2
The level of expressed mRNA in the presence of chemical substance/The level of expressed mRNA in the absence of chemical substance (yeast gene YGL104C): 1.0
The level of expressed mRNA in the presence of chemical substance/The level of expressed mRNA in the absence of chemical substance (yeast gene YGL167C): 0.8
The level of expressed mRNA in the presence of chemical substance/The level of expressed mRNA in the absence of chemical substance (yeast gene YGL255W): 1.0
The level of expressed mRNA in the presence of chemical substance/The level of expressed mRNA in the absence of chemical substance (yeast gene YGR055W): 1.2
The level of expressed mRNA in the presence of chemical substance/The level of expressed mRNA in the absence of chemical substance (yeast gene YGR065C): 1.3
The level of expressed mRNA in the presence of chemical substance/The level of expressed mRNA in the absence of chemical substance (yeast gene YGR082W): 0.9
The level of expressed mRNA in the presence of chemical substance/The level of expressed mRNA in the absence of chemical substance (yeast gene YGR096W): 1.2
The level of expressed mRNA in the presence of chemical substance/The level of expressed mRNA in the absence of chemical substance (yeast gene YGR138C): 0.9
The level of expressed mRNA in the presence of chemical substance/The level of expressed mRNA in the absence of chemical substance (yeast gene YGR191W): 0.7
The level of expressed mRNA in the presence of chemical substance/The level of expressed mRNA in the absence of chemical substance (yeast gene YGR197C): 1.5
The level of expressed mRNA in the presence of chemical substance/The level of expressed mRNA in the absence of chemical substance (yeast gene YGR224W): 0.9
The level of expressed mRNA in the presence of chemical substance/The level of expressed mRNA in the absence of chemical substance (yeast gene YGR260W): 0.7
The level of expressed mRNA in the presence of chemical substance/The level of expressed mRNA in the absence of chemical substance (yeast gene YGR281W): 0.9
